Assays:
[1] = system: E. multilocularis metacestode vesicles; experiment: Phosphoglucose isomerase (PGI) release assay (damage-marker release) on metacestode vesicles; type: cell-based, Echinococcus multilocularis; conditions: overview screen, 10 μM; for PGI d5 (relative PGI release) / PGI d12 (relative PGI release): singlets, relative to 0.1 % Triton X-100, DMSO subtracted; for PGI d5 (relative PGI release): 5 days; for PGI d12 (relative PGI release): 12 days
[2] = system: E. multilocularis metacestode vesicles; experiment: Metacestode vesicle viability assay (ATP, CellTiter-Glo); type: cell-based, Echinococcus multilocularis; conditions: overview screen, 10 μM
Description: Viability was assessed after 12 days using the same metacestode vesicles as for the PGI release assay. Triton X-100 was added to each well to a final concentration of 0.1 %. Subsequently the metacestode vesicles were broken mechanically and 50 μL of the supernatant was mixed with 50 μL of CellTiter-Glo® buffer (Promega, Dübendorf, Switzerland). Measurements were performed on a HIDEX Sense microplate reader.

[3] = singlets, 12 days, relative to DMSO control

SMILES	PGI d5 (relative PGI release) [1] [%]	PGI d12 (relative PGI release) [1] [%]	activity in the PGI release assay (in words) ([1]; twelve days, cut-off PGI release ≥20 %)	viability at 10 µM ([2]; Echinococcus multilocularis, 288 h, singlets, 12 days, relative to DMSO control, read-out: Viability d12 (relative viability)) [%]	effect on metacestode vesicle viability (in words) ([2]; twelve days, cut-off viability ≤30 %)	Viability d12 (relative viability) [2, 3] [%]
N#Cc1c(F)c(Cl)c(NCc2ccccc2)c(C#N)c1F [MMV1582496, 4-(benzylamino)-5-chloro-2,6-difluorobenzene-1,3-dicarbonitrile]	23.5135	27.7197	active in the PGI assay after twelve days	121	did not reduce the metacestode vesicle viability	
CC(C)(C)c1ccc(C(Cn2cccc(C(F)(F)F)c2=O)NC2Cc3ccccc3C2)cc1 (centres unmarked) [MMV1634393]	-0.3467	0.3021				102.314
CC(C)CCN1C(=O)C(C2=NS(=O)(=O)c3cc(NS(C)(=O)=O)ccc3N2)=C(O)[C@@H]2[C@H]3CC[C@H](C3)[C@@H]21 [MMV1782220]	0.5402	0.853				132.239
COc1ccc(C(C)(C)C)cc1NC(=O)C(=O)c1ccc(OCCN2CCOCC2)c2ccccc12 [MMV1782209]	0.2921	0.2691				152.31
Cc1c(OCC(F)(F)F)ccnc1C[S+]([O-])c1nc2ccccc2[nH]1 (centres unmarked) [MMV001438]	1.578	-2.884				96.7343
COc1ccc(SC(=O)N[C@H](CCC(=O)O)C(=O)O)cc1 [MMV1580846]	-0.9041	-2.09				126.077
O=C(NC(=O)N1CCCc2ccccc21)c1cccc(Cl)c1 [MMV1782351]	-2.457	-24.682				118.649
Cc1cccc(CC(=O)N[C@H]2CCOC2=O)c1 [MMV1579782]	1.649	1.447				167.646
O=P(O)(O)C(CCCc1cccc(Oc2ccccc2)c1)S(=O)(=O)O (centres unmarked) [MMV1782215]	0.5378	19.5176				65.7947
CC[C@@]1(O)C(=O)OCc2c1cc1n(c2=O)Cc2cc3c([N+](=O)[O-])cccc3nc2-1 [MMV1580796]	0.7883	-0.447				120.917
CCOC(=O)/C=C/[C@H](C[C@@H]1CCNC1=O)NC(=O)[C@H](CC)n1cccc(NC(=O)c2cc(C)on2)c1=O [MMV1782112]	0.1675	-19.6518				109.382
COc1ccc2cc3[n+](cc2c1OCCN(CCn1cncn1)Cc1ccc(F)cc1F)CCc1cc2c(cc1-3)OCO2 [MMV1593540]	1.275	36.6613				37.1562
Cc1c[nH]c(=O)nc1NCc1ccccc1 [MMV1582489]	-0.6323	-1.8719				140.789
CC(C)(C)NC(=O)[C@@H]1CN(Cc2cnc3occc3c2)CCN1C[C@@H](O)C[C@@H](Cc1ccccc1)C(=O)N[C@H]1c2ccccc2C[C@H]1O [MMV1782353]	0.2673	-0.3369				92.6641
